{
  "source": "patent US20060121498A1",
  "about": "“Enzymes involved in apoptosis” (EiRx Therapeutics Limited, priority 2003, published 2006)",
  "key": {"MIAPaCa-2 cells": {"system": "MIAPaCa-2 cells", "conditions": "nude mouse, subcutaneous MIAPaCa-2; cited from earlier work"}, "bone marrow derived DC": {"system": "bone marrow derived DC", "conditions": "pretreatment; cited from earlier work"}, "neutrophils": {"system": "neutrophils", "assay": "Neutrophil apoptosis, sub G1 analysis (DNA fragmentation)", "type": "cell-based, human", "method": "Neutrophils are isolated from the blood as described in WO 02/04657 and resuspended at a concentration of 2×10^6/ml. Five hundred microlitres are pipetted into wells of a 24 well plate and incubated in the presence or absence of survival factors.\nAfter this incubation, the neutrophils are carefully resuspended by gentle agitation and the total contents of the well are placed into an eppendorf and centrifuged @2800 rpm for 2 min @ RT in a minifuge. The cell pellet is carefully resuspended in 300 μl of ice cold hypotonic fluorochrome solution (50 μg/ml Propidium Iodide, 0.1% Sodium Citrate and 0.1% Triton X-100) and placed in a fridge for 24 h @ 4° C.\nPrepared samples are analysed with a FacsCalibre flow cytometer (Becton Dickinson) using double discrimination to ensure single cell suspension with Log Forward and Side Scatter Parameter acquisition.\nNeutrophils are seeded at 2×10^6/ml in a 24 well plate in full culture medium (1 ml/well). A PI3K inhibitor (Ly94002) is added to the neutrophils to a final concentration of 20 μM prior to the addition of GM-CSF (50 units/ml). Control wells received either no GM-CSF or GM-CSF (50 units/ml) in the absence of inhibitor. Neutrophils are cultured for 18 h at 37° C. prior to harvest and prepared for sub G1 analysis, as previously described.\nNeutrophils are seeded at 2×10^6/ml in a 24 well plate in full culture medium (1 ml/well). […]"}, "CAL27 tumour cell line": {"system": "CAL27 tumour cell line", "conditions": "relatively low basal DPD activity; cited from earlier work"}, "MIAPaCa-2 and HuTu80": {"system": "MIAPaCa-2 and HuTu80", "conditions": "cited from earlier work"}, "[1]": {"conditions": "cited from earlier work"}, "TF-1 cells [2]": {"system": "TF-1 cells", "assay": "Overexpression of identified genes in TF1 cells, viability by FSc/SSc", "type": "cell-based, human", "conditions": "96 h post transduction, versus control plasmid Pms*H", "source_text": "To assess the apoptotic activity of the apoptosis-associated genes identified herein, TF1 cells are transduced with either a plasmid expressing the gene of interest coding sequence or a control plasmid (PMs*H). The gene coding sequence encoding the amino acid sequence set out in Table 1 is cloned into the retroviral expression vector pMSCV (Clontech). Plasmids are transfected into the retroviral packaging cell line Phoenix 293 (Standford) using the CalPhos Mammalian Transfection Kit (Clontech) according to the manufacturer's instructions. Retrovirus is harvested 72 hours later. Retrovirus is transduced to TF 1 cells by incubation for 18 hours. Media is changed and cells are incubated for an additional 96 hours.\nThe cells are examined for viability after 96 hours using forward scatter/side scatter parameters."}, "TF-1 cells [3]": {"system": "TF-1 cells", "assay": "TF-1 apoptosis by sub G1 analysis", "type": "cell-based, human", "conditions": "48 h with GM-CSF (approximately 55% in its absence)", "method": "TF-1 cells are cultured for 48 h in the presence or absence of GM-CSF (2 ng/ml). Cells are then harvested by centrifugation (1000 rpm, for 10 min) and washed in PBS. The pellet is resuspended in PBS (2×10^5 cells/ml) and 1 ml is then added in a dropwise fashion to ice cold 70% EtoH whilst continuously vortexing. Cells are then permeabilized by incubating at −20° C. for 24 h. To stain DNA, cells are centrifuged and washed in PBS. Cells are resuspended in 500 μl Propidium Iodide Buffer (Propidium iodide (50 μg/ml; Sigma); RNAse A (50 μg/ml; Sigma) in Phosphate Buffered Saline (PBS; Sigma) for 15 min in the dark before flow cytometric analysis using a FacsCalibre (Becton Dickinson). Analysis is performed using Cell Quest software."}, "TF-1 cells [4]": {"system": "TF-1 cells", "assay": "TF-1 apoptosis by light scatter analysis (live gate)", "type": "cell-based, human", "conditions": "48 h with GM-CSF 2 ng/ml (35% upon factor withdrawal)", "method": "Light Scatter Analysis takes advantage of the fact that by using the laser beam of a flow cytometer one can determine the size (Forward Scatter) and granularity (Side Scatter) of a cell. The morphological changes associated with apoptosis, such as decreased size (shrinkage) and granularity affect these parameters. As a consequence, cells undergoing apoptosis will move to the left and slightly down, from the parameters of a healthy population.\nTF-1 cells are plated into 24 well plates (2×10^5/ml) and are cultured for 48 h in the presence or absence of GM-CSF (2 ng/ml). Cells are then harvested by centrifugation (1000 rpm, for 10 min) and washed in PBS. The pellet is resuspended in PBS (2×10^5 cells/ml) and acquired by a FacsCalibre. Forward and Side scatter parameters are assessed using Cell Quest software.\nCulturing TF-1 cells in the absence of GM-CSF induces cell death. This death induces morphological changes in the Forward and Side Scatter parameters that is detected by FacsCalibre analysis. Consequently, by observing the percentage of cells in the live gate (which is an arbitrary region pre-set on a healthy population of TF-1 cells grown in the presence of GM-CSF (2 ng/ml)), one observes that there is a decrease in the percentage of cells with these light scatter parameters, when cytokine is withdrawn."}, "[5]": {"system": "redox related genes such as heme oxygenase 1 and Glutathione reductase", "conditions": "cited from earlier work"}, "Walker 256 tumour": {"system": "Walker 256 tumour", "conditions": "diet of 5.5% GLA; cited from earlier work"}, "[6]": {"system": "MCF-7 human breast cancer cells", "conditions": "inhibition of FAS with cerulenin; cited from earlier work"}, "[7]": {"conditions": "relatively high basal DPD activity"}},
  "note": "Like-named read-outs stand apart in the source and are kept apart here.",
  "data": [
    {"compound": "O=c1[nH]c(=O)n(C2CCCO2)cc1F", "note": "(stereo not shown) [FT, tegafur]", "values": [
      {"measurement": "tumour growth inhibition", "setting": "MIAPaCa-2 cells", "value": "21+/−25%"}
    ]},
    {"compound": "N[C@H]1CONC1=O", "note": "[L-cycloserine]", "values": [
      {"measurement": "endogenous ceramide levels and tumor-induced DC apoptosis", "setting": "bone marrow derived DC", "value": "reduced endogenous ceramide levels and protected DC from tumor-induced apoptosis"}
    ]},
    {"compound": "CCCCCCCCCCCCCCCCCCOC(=O)OC1C(O)C(O)C(CO)C(O)C1OC", "note": "(stereo not shown) [AKT inhibitor]", "values": [
      {"measurement": "GM-CSF mediated survival, sub G1 analysis", "setting": "neutrophils; inhibitor 20 μM plus GM-CSF 50 units/ml, 18 h", "value": "survival is abrogated"}
    ]},
    {"compound": "Oc1cc(O)c(Cl)cn1", "note": "[CDHP, 5-chloro-2,4-dihydroxypyridine]", "values": [
      {"measurement": "5-FU cytotoxicity", "setting": "CAL27 tumour cell line", "value": "did not have any effect on 5-FU cytotoxicity"},
      {"measurement": "molar ratio (CDHP:5-FU) at maximum effect", "setting": "MIAPaCa-2 and HuTu80; enhancement of 5-FU cytotoxicity", "value": "more than 0.2"},
      {"measurement": "cell proliferation, CDHP by itself", "setting": "MIAPaCa-2 and HuTu80; in vitro study", "value": "did not influence cell proliferation by itself"},
      {"measurement": "5-FU cytotoxicity", "setting": "MIAPaCa-2 and HuTu80; [7]", "value": "enhanced 5-FU cytotoxicity in a concentration-dependent manner"},
      {"measurement": "5-fluorouracil (5-FU) degradation", "setting": "MIAPaCa-2 and HuTu80; [7]", "value": "inhibit 5-fluorouracil (5-FU) degradation"}
    ]},
    {"compound": "O=c1[nH]cc(F)c(=O)[nH]1", "note": "[5FU, 5-fluorouracil]", "values": [
      {"measurement": "patients suffering from grade IV neutropenia", "setting": "[1]; patients with a decreased DPD activity", "value": 55, "unit": "%"},
      {"measurement": "patients suffering from grade IV neutropenia", "setting": "[1]; patients with a normal DPD activity", "value": 13, "unit": "%"}
    ]},
    {"compound": "CCCCCCCCCCCCCC(=O)O[C@@H]1[C@@H](C)[C@@]2(O)[C@@H](C=C(CO)C[C@]3(O)C(=O)C(C)=C[C@@H]23)[C@@H]2C(C)(C)[C@]12OC(C)=O", "note": "[PMA]", "values": [
      {"measurement": "endogenous ceramide levels and tumor-induced DC apoptosis", "setting": "bone marrow derived DC", "value": "reduced endogenous ceramide levels and protected DC from tumor-induced apoptosis"}
    ]},
    {"compound": "ELAFIN", "values": [
      {"measurement": "apoptosis/viability by FSc/SSc parameters", "setting": "TF-1 cells [2]", "value": "induces apoptosis in TF-1 cells"}
    ]},
    {"compound": "GM-CSF: 22 kDa proinflammatory cytokine released by several activated cell types including monocytes and T cells", "values": [
      {"measurement": "cells with sub-G1 profiles", "setting": "TF-1 cells [3]", "value": 5, "unit": "%"},
      {"measurement": "percentage of cells in the live gate", "setting": "TF-1 cells [4]", "value": 77, "unit": "%"},
      {"measurement": "percentage of cells with a sub G1 profile", "setting": "neutrophils; neutrophils cultured overnight with GM-CSF (65% without)", "value": 9.7, "unit": "%"}
    ]},
    {"compound": "CCOC(=O)[C@@]1(CCCCCCOc2ccc(Cl)cc2)CO1", "note": "[etomoxir]", "values": [
      {"measurement": "expression of redox related genes", "setting": "[5]", "value": "induces up regulation of redox related genes"}
    ]},
    {"compound": "CCCCC/C=C\\C/C=C\\C/C=C\\CCCCC(=O)O", "note": "[GLA, Gamma-linolenic acid]", "values": [
      {"measurement": "decrease in CTP1 activity", "setting": "Walker 256 tumour", "value": 62, "unit": "%"},
      {"measurement": "reduction of tumour growth", "setting": "Walker 256 tumour", "value": 45, "unit": "%"}
    ]},
    {"compound": "C/C=C/C/C=C/CCC(=O)[C@H]1O[C@H]1C(N)=O", "note": "[cerulenin]", "values": [
      {"measurement": "CPT-1 and fatty acid oxidation", "setting": "[6]", "value": "causes carnitine palmitoyltransferase-1 (CPT-1) inhibition and fatty acid oxidation inhibition"}
    ]}
  ]
}
